Laboratory results published in US20110236318A1, “ANIMAL MODEL OF AN EJACULATION-LIKE REFLEX” (ASTELLAS PHARMA INC., priority 2010, published 2011).

Legend:
ejaculatory latency = settings: male rat copulatory behavior study, reported previously; cited from earlier work
ejaculation-like reflex = experiment: Ejaculation-like reflex induced by urethral occlusion by a bend at the penile base; type: in vivo, rat; settings: anesthetized spinal cord-transected male SD rats; 1.0 mg/kg iv; occlusion 10 minutes after dosing; vs pre values; N=3
Source text: Male SD rats of 300-450 g body weight (Charles River) were used under urethane anesthesia (1.2 g/kg, s.c., ACROS Organic). The skin and muscle on the back were incised to expose the 7th-9th thoracic vertebra. The vertebra on the back side was removed to expose the spinal cord, which was cut at the 8th-10th thoracic vertebra. Gelfoam (Pfizer) was imbedded in the cut site and the muscle and skin were sutured.
The neck skin and muscle were incised, and catheters (Intramedic polyethylene tube No. 50; Becton Dickinson) were inserted into the carotid and jugular vein for measuring the blood pressure and administering a drug, respectively. The other end of the carotid catheter was connected to a pressure transducer (CDXIII Transducer, Argon Medical Devices).
The lower abdominal region was subjected to median incision to expose the bladder. […] The pressure transducers connecting to the catheter inserted into the carotid […] and the catheter inserted into the proximal urethra were connected to a distortion pressure amplifier (Transbridge 4M, World Precision Instruments) installed in a polygraph system (RPS321RM, GRASS Technologies), and the blood pressure and urethral pressure were measured by a Power Labosystem (ML880 and LabChart version 6, AD Instruments) with a lapse of time. […]

CCCN(CCC)C1CCc2cccc(O)c2C1 (stereo not drawn) [8-OH-DPAT]
ejaculatory latency (ejaculatory latency): shorten the ejaculatory latency | latency from the start of occlusion until the first ejaculation-like reflex (ejaculation-like reflex): shortened the latency of the first ejaculation-like reflex | threshold urethra pressure immediately before the first ejaculation-like reflex (ejaculation-like reflex): reduced the threshold urethra pressure
